Where two headings read alike, the source gives them in different places.
What was measured:
whole blood = test: Cytokine secretion in human whole blood assay (ELISA); format: cell-based
Method: A volume of approximately 55 mL fresh whole blood was drawn in heparinized Vacutainers from three healthy adult anonymous volunteers as described (J. A. Ida, Journal of Immunol Methods, 310, 2006, 86-99). […] Before drawing the blood, the compounds were added to 96 well round bottom plates in a 10× diluted sample at 20 ul. The compounds were diluted in RPMI media without serum but with antibiotics. Antibiotics were added at a 10× concentration. After drawing the blood, the whole blood sample was gently mixed to obtain a homogeneous sample, and 180 ul was added to each well.
After 6 hours and 24 hours incubation, plasma was removed for ELISA (IL-6, IL-10, IL-12p40 and IFN-alpha). ELISA was made at the 6 and 24 hours time point for all concentrations. After 24 hours incubation with selected compound concentrations, cells were analyzed for activation markers by FACS.
All compounds were setup in concentrations at 0-0.01-0.03-0.1-0.5-2.0-10.0 micromolar as the final concentration. Vehicle control was DMSO control, where we used the highest concentration used for the compounds. After addition of blood, all plates were gently agitated at 37° C. and 5% CO2 until harvest. The samples were removed after 6 or 24 hours incubation, and pooled into appropriate tubes (2 ml).
Concentrations of cytokines were determined by ELISA from R&D Systems. The results were analyzed in Graph Pad Prism in order to prepare dose-response
curves, and for determination of EC50 values. FACS analysis was made by using Becton-Dickinson FACSDiva software and subsequently illustrated in Graph Pad Prism.

human PBMCs = test: IL-6 secretion in human PBMCs, two batches of Compound A and SC12; format: cell-based; details: Homo sapiens, PBMC, 24 h
Method: PBMCs were purified from two donors and plated into 96 well plates at 2×10^5 cells/well in RPMI media including human 2% heat inactivated AB serum, glutamine, Pen-strep and R-mercapto-ethanol. The cells were treated with TLR7 agonists for 24 h in 4 doses. The conditioned media was removed for ELISA analyses for IL-6, and the EC50 value determined for each compound and each batch.
All compounds were tested in four concentrations (10-1-0.1-0.01 micromolar).
Concentrations of IL-6 were determined by ELISA from R&D Systems using the Microsoft Excel software. The results were analyzed in Graph Pad Prism in order to prepare dose-response curves, and for determination of EC50 values.

[1] = test system: receptors associated with pain-related syndromes (e.g. adenosine and sodium channel); test: Radioligand binding assay among 73 primary molecular targets; details: SC12 at fixed concentration of 30 microM
PBMCs = test: IL-6 and TNF-alpha secretion in PBMCs from three donors (ELISA); format: cell-based, human; details: Homo sapiens, PBMC
Method: EC50 values were determined for control and each drug candidate for IL-6 and TNF-alpha secretion. […] The cells were treated with TLR7 agonists for 24 hours in 7 doses. The conditioned media was removed for ELISA analyses for IL-6 and TNF-alpha, and cell survival determined by the XTT method according to the protocol from the supplier. […] Concentrations of IL-6 and TNF-alpha were determined by ELISA from R&D Systems using the Microsoft Excel Software. The results were analyzed in Graph Pad Prism in order to prepare dose-response curves, and for determination of EC50 values.

HLA-DR+/CD20+ B cells = test: FACS analysis of B cell activation (CD40) in whole blood; format: cell-based, human; details: 24 hours, 2 and 10 uM, three donors
Method: (§1) A flow cytometric analysis was performed on whole blood from three donors after treatment with two compound concentrations for 24 h. The FACS analysis for donor 1 and donor 2 was made on another day than donor 3. The compound concentrations were as follows:
B cell activation: 2 and 10 uM
(§2) The FACS analysis was used to identify whether the test compounds could induce activation of B cells, and two different subsets of dendritic cells, namely the myeloid CD11c+/CD123− DCs and the plasmacytoid CD11c−/CD123+ DCs. The following markers were studied to identify the activation status of the different subsets:
(§3) The FACS staining was performed according to the manufacturer's instructions. Lysis of red blood cells was performed before FACS staining in order to minimize auto-florescence. To include as many B cells and DCs in the study as possible the FACS analyses were performed on 500,000 cells in total for each staining. A P1 gate was set only to include relevant cells on FSC vs. SSC (see FIGS. 12-15). The results of the individual analysis were present as Mean Fluorescence Intensity
The analysis of expression of the activation marker CD40 on B cells was made on double positive HLA-DR (MHC class II) (P4 gate) and CD20 cells (B cell marker) (P8 gate).

[2] = test system: HLA-DR+/CD11c+/CD123- mDCs; test: FACS analysis of myeloid DC activation in whole blood; format: cell-based, human; details: 24 hours, 0.1 and 0.5 uM, three donors
Method: as §1, §2, §3
The analysis of myeloid DCs was based on HLA-DR+/CD11c+/CD123-cells, thus all analyzed cells was included in the HLA-DR+ (P3) gate and CD11c+/CD123− (Q4) gate (see gates in FIGS. 13-15).

[3] = test system: Raw264.7 mouse macrophage cell line; test: IL-6 and TNF-alpha secretion in Raw264.7 cells (ELISA); format: cell-based; details: Mus musculus, RAW264.7, 24 hours treatment, 7 doses
Method: EC50 values were determined for control and each drug candidate for IL-6 and TNF-alpha secretion. […] The cells were plated in 96 well plates and treated with TLR7 agonists for 24 hours in 7 doses. The conditioned media was removed after 24 hours for ELISA analyses. The cells were subsequently assayed for viability using the XTT assay according to the guidelines from the supplier. […] The experiment was performed in quadruplicate wells for each testing series, and the supernatant pooled and measured by ELISA in triplicates. Concentrations of IL-6 and TNF-alpha were determined by ELISA from R&D Systems using the Microsoft Excel Software. The results were analyzed in Graph Pad Prism in order to prepare dose-response curves, and for determination of EC50 values.

[4] = test system: AY-27 rat bladder cancer cell-line
CYP2E1 = CYP2E1 (Homo sapiens (Human), UniProt P05181); test: Fluorescent High Throughput P450 assay, CYP2E1; format: biochemical; details: substrate MFC; read-out: CYP2E1 IC50 (Mean ± S.D.)
CYP2E1, sequence (P05181 whole entry, looked up): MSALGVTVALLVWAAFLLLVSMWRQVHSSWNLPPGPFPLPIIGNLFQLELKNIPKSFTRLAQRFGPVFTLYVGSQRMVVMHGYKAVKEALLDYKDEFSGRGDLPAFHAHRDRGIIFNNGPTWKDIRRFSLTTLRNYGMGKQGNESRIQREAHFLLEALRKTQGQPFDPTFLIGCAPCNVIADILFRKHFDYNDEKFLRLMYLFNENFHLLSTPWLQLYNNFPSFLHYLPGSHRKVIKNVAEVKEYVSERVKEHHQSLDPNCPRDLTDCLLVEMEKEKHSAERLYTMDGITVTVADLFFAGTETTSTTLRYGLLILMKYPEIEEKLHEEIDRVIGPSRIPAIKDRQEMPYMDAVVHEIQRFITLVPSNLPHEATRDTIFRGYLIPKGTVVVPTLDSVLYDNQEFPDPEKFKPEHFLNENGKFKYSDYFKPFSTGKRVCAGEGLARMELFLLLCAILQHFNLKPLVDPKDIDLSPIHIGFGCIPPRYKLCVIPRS
Method: Inhibition of the P450 isoforms was measured in specific assays using specific substrates that become fluorescent upon CYP metabolism. Compounds, dissolved in ACN (acetonitrile) (CYP2E1, CYP2C8, CYP2B6, CYP3A5) or DMSO (all remaining isoforms), were tested in duplicate (n=2) in concentration-response curves (eight concentrations) in a 96-well plate containing incubation/NADPH regenerating buffer. Specific isoenzymes and substrates were added and incubated at 37° C. Reactions were terminated at different times, depending on the assays, and plates read on a Fluoroskan Ascent at the appropriate emission/excitation wavelengths. Concentration-response curves performed in duplicate for known inhibitors for each isoenzyme were tested in every assay as positive control.

[5] = day 12, group 1 Imiquimod 0.1%, group 2 SC12 0.38%

`CC(C)Cn1cnc2c(N)nc3ccccc3c21` [Imiquimod, reference compound] was tested. Which IL-6 secretion induced (whole blood; 6 h incubation, up to 10.0 micromolar) did it give?
The IL-6 secretion induced was “low and insignificant amounts of IL-6”.

What about the IFN-alpha secretion induced (whole blood; 6 hours incubation) of the same compound?
The IFN-alpha secretion induced was “did not induce IFN-alpha secretion”.

What about the IL-10 production (whole blood; 6 hours incubation) of the same compound?
Its IL-10 production is “no IL-10 production was seen”.

What about the IL-12p40 secretion induced (whole blood; 6 hours incubation) of the same compound?
Its IL-12p40 secretion induced is “did not induce IL-12p40 secretion”.

What about the IL-12p40 secretion induced (whole blood; 24 hours incubation) of the same compound?
Its IL-12p40 secretion induced is “did not induce IL-12p40”.

What about the EC50 (human PBMCs; Donor 1, 4 doses) of the same compound?
Its EC50 is 18 µM.

And the EC50 (human PBMCs; Donor 2, 4 doses)?
The EC50 was 18.4 µM.

What about the “Binding to receptors associated with pain-related syndromes” value [1] of the same compound?
Its value is “shown to bind”.

What about the EC50 (PBMCs; 24 h, Donor 1, 24 hours, read-out: IL-6 secretion MC50) of the same compound?
The EC50 was 6.35 µM.

And the EC50 (PBMCs; 24 h, Donor 1, 24 hours, read-out: TNFa secretion MC50)?
Its EC50 is 3.07 µM.

What about the EC50 (PBMCs; 24 h, Donor 2, 24 hours, read-out: IL-6 secretion MC50) of the same compound?
The EC50 was 1.99 µM.

And the EC50 (PBMCs; 24 h, Donor 2, 24 hours, read-out: TNFa secretion MC50)?
The EC50 was 24.9 µM.

What about the EC50 (PBMCs; 24 h, Donor 3, 24 hours, read-out: IL-6 secretion MC50) of the same compound?
Its EC50 is 4.64 µM.

And the EC50 (PBMCs; 24 h, Donor 3, 24 hours, read-out: TNFa secretion MC50)?
Its EC50 is 22.4 µM.

And the EC50 (PBMCs; D1, first experiments on three donors, read-out: EC50 values, IL-6 secretion)?
Its EC50 is 6.35 µM.

What about the EC50 (PBMCs; D2, first experiments on three donors, read-out: EC50 values, IL-6 secretion) of the same compound?
The EC50 was 1.99 µM.

And the EC50 (PBMCs; D3, first experiments on three donors, read-out: EC50 values, IL-6 secretion)?
Its EC50 is 4.64 µM.

What about the EC50 (PBMCs; average of three donors, read-out: IL-6 secretion Average EC50) of the same compound?
The EC50 was 4.33 µM.

And the EC50 (PBMCs; average of three donors, read-out: TNFa secretion Average EC50)?
The EC50 was 16.8 µM.

What about the “CD40 expression (MFI) on B cells” value (HLA-DR+/CD20+ B cells) of the same compound?
Its value is “increased expression in all three donors”.

And the “CCR7 expression on mDCs” value [2]?
Its value is “showed high CCR7 expression”.

What about the “CD80 expression on mDCs” value [2] of the same compound?
The value was “weak expression of CD80 in donor 1 and 2”.

What about the EC50 ([3]; read-out: EC 50 IL 6) of the same compound?
Its EC50 is 2 µM.

What about the EC50 ([3]; read-out: EC 50 TNF-alpha) of the same compound?
The EC50 was 2.16 µM.

What about the “Number of rats with a tumor positive bladder” value ([4]; day 12) of the same compound?
Its value is 9 of 14.

What about the “Rats with pT2 Tumor, number (% of 14)” value [4, 5] of the same compound?
Its value is 9 (64.3%).

And the “Tumor free rats, number (% of 14)” value [4, 5]?
Its value is 5 (35.7%).

And the “Mean weight of the rat bladders” value ([4]; day 12, intravesical 0.5 ml on day 2 and 5, group 1 Imiquimod 0.1%, group 2 SC12 0.38%)?
The value was 0.1201 grams.

And the “Mean number of tumors per rat bladder” value ([4]; group 1 Imiquimod 0.1%, group 2 SC12 0.38%)?
Its value is 1.71.

What about the Signs of toxicity ([4]; intravesical instillation day 2 and 5) of the same compound?
The Signs of toxicity was “No signs of toxicity”.

And the Mean invasion depth ([4]; tumor positive bladders, group 1 Imiquimod 0.1%, group 2 SC12 0.38%)?
The Mean invasion depth was 1.3333 mm.

With `CCN(CC)C(=S)S` [DDTC, reference compound] as the compound, how does the IC50 (CYP2E1) read?
The IC50 was 0.85 ± 0.01 µM.

Reference: patent US9173935B2, “Phospholipid drug analogs” (Telormedix SA, priority 2010, dated 2015)
